Results reported in US20260306525A1, “COMBINATION THERAPY GLUCOCORTICOIDS AND GINSENOSIDE” (FYTAGORAS B.V., priority 2023, published 2026).

Columns and labels:
[1] = tested on: neutrophils; assay: zebrafish tail fin wounding assay, neutrophil migration to wounded site; assay type: in vivo, zebrafish (Danio rerio)
Protocol: (§1) Zebrafish (Danio rerio) were maintained and handled according to the guidelines from the Zebrafish Model Organism Database (http://zfin.org) and in compliance with the directives of the local animal welfare committee of Leiden University. Zebrafish were exposed to a 14 h light and 10 h dark cycle to maintain circadian rhythmicity. Fertilization was performed by natural spawning at the beginning of the light period. […] The following zebrafish lines were used in this study: the double transgenic line Tg(mpx:GFP^i114/mpeg1:mCherry^umsF001), in which neutrophils and macrophages are fluorescently labeled (green and red, respectively), and the Tg(9xGCRE-HSV.UI23:EGFP)^ia20 reporter line, in which the gene encoding enhanced green fluorescent protein (EGFP) is driven by a GRE-containing promoter.
(§2) For the tail fin wounding experiments, 20 larvae at 2 or 3 days post-fertilization (dpf) were utilized for each experimental group. For wounding, larvae were anesthetized in egg water containing 0.02% buffered aminobenzoic acid ethyl ester (tricaine; Sigma-Aldrich). Larvae were placed on Petri dishes coated with 2% agarose under a Leica M165C stereomicroscope (Leica Microsystems, Wetzlar, Germany), and the tails were partly amputated using a 1-mm sapphire blade (World Precision Instruments, Sarasota, FL, USA). For quantification of leukocyte migration, larvae were fixed overnight in 4% paraformaldehyde (PFA) at 4° C. The next day, fixed larvae were washed with Phosphate Buffered Saline (PBS) containing 0.1% Tween 20, and stored at 4° C. until imaging.
(§3) The macrophages were detected based on their red (mCherry) fluorescence, and neutrophils based on their green (EGFP) fluorescence. To quantify the number of macrophages and neutrophils recruited to the wounded area, the cells in a defined area of the tail were determined by blinded manual counting.
(§4) Zebrafish (Danio rerio) were maintained and handled according to the guidelines from the Zebrafish Model Organism Database (http://zfin.org) and in compliance with the directives of the local animal welfare committee of Leiden University. Zebrafish were exposed to a 14 h light and 10 h dark cycle to maintain circadian rhythmicity. Fertilization was performed by natural spawning at the beginning of the light period. […] The following zebrafish lines were used in this study: AB/TL wild type, the transgenic lines Tg(mpx:GFP^i114/mpeg1:mCherry^umsF001)[14, 15], and Tg(9xGCRE-HSV.UI23:EGFPia^20)[16], and the mutant lines grs357[20].
(§5) For the tail fin wounding experiments, 2- or 3-days post-fertilization (dpf) larvae were anesthetized in egg water containing 0.02% buffered aminobenzoic acid ethyl ester (tricaine; Sigma-Aldrich). Larvae were placed in Petri dishes coated with 2% agarose under a Leica M165C stereomicroscope (Leica Microsystems, Wetzlar, Germany), and the tails were partly amputated using a 1-mm sapphire blade (World Precision Instruments, Sarasota, FL, USA).
(§6) In experiments in which the leukocyte migration was used as a readout, larvae were subjected to treatment with chemicals as indicated, starting at 2 h before the amputation (pretreatment), and treatment was continued for 4 h after the tail fin amputation (20 larvae per group, unless indicated otherwise). In some experiments, a 24 h treatment with MZ31 (10 μM) was started at 2 dpf, and these treatments were continued during the pretreatment and treatment with the other chemicals. At 4 h after amputation, the larvae were fixed in 4% paraformaldehyde (PFA) overnight at 4° C. The next day, fixed larvae were washed with Phosphate Buffered Saline (PBS) containing 0.1% Tween 20 and stored at 4° C. until imaging. […] The macrophages were detected based on red (mCherry) fluorescence and neutrophils on their green (EGFP) fluorescence. To quantify the number of macrophages and neutrophils recruited to the wounded area, the cells in a defined area of the tail were determined by blinded manual counting. […]

[2] = tested on: gr; assay: Gr transactivation activity in Tg(9xGCRE-HSV.UI23:EGFP)ia20 reporter larvae; assay type: in vivo, zebrafish (Danio rerio); settings: 24 h from 2 dpf; 10 μM GC, 50 μM Rg1 or combination
Protocol: To investigate the Gr transactivation activity in zebrafish larvae, the Tg(9xGCRE-HSV.UI23:EGFP)^ia20 reporter line was used, which expresses enhanced green fluorescent protein (EGFP) under the control of a promoter containing an array of nine GREs. […] The integrated intensity of the EGFP signal in the larvae was determined using ImageJ software.
To investigate the Gr transactivation activity in zebrafish larvae, the Tg(9xGCRE-HSV.UI23:EGFP^ia20) reporter line was used, which expresses enhanced green fluorescent protein (EGFP) under the control of a promoter containing an array of nine GREs. […] The integrated intensity of the EGFP signal in the larvae was determined using ImageJ software.

[3] = size exclusion chromatography of micelles (Sephadex G50) with HPLC; assay type: physicochemical
Protocol: The size and content of the micelles were determined by means of size exclusion chromatography. 1 mL of aqueous ginsenoside/dexamethasone solution was loaded on a Sephadex G50 size exclusion column (size 25×1 cm) and eluted under gravity with water. Blue dextran (MW=2.000.000 Da) and erythrosine (880 Da) were used as molecular weight markers. Fractions of 2.0 mL were collected. The fractions were dried and dissolved in 70% methanol and the ginsenoside content was analyzed by means of HPLC. HPLC conditions were: • HPLC equipment: HPLC/DAD Aligent 1200 series, a quaternary pump connected to a DAD and autosampler. • Stationary phase: Kinetex 2.6 μm, C18 100 Å, 100×4.6 mm-Phenomenex, USA • Mobile phase: • A: 0.03% o-phosphoric acid (H3PO4) in Ultrapure H2O • B: 0.03% o-phosphoric acid (H3PO4) in Acetonitrile (LiChrosolv, Millipore-Merck, Darmstadt, Germany; quality far UV) • Gradient:
• Conditions • Flow: 0.8 ml/min • Injection volume: 20 μL • Column temperature: 35° C. • Detection wavelength: 203 and 241 nm

[4] = rule of thumb, literature table; cited from earlier work
[5] = tested on: zebrafish larvae; assay: tail fin regeneration assay
[6] = tested on: macrophages; assay: zebrafish tail fin wounding assay, macrophage migration to wounded site; assay type: in vivo, zebrafish (Danio rerio); settings: Example 3, ginsenoside Re
Protocol: as §1, §2, §3, §4, §5, §6

[7] = micelle formation from dried film dissolved in H2O; appearance of solution; assay type: physicochemical
Protocol: Dried leaves of the plant Panax ginseng (8 gram) were boiled in water (350 mL), filtrated and loaded on a 20 mL Bed Volume (BV) column filled with macroporous resin (type D101). After extensively washing with water (15 BV's) the ginsenosides were eluted with 60% EtOH. The ginsenoside solution was decolorized by passing through a 20 mL BV column filled with type D941 macroporous resin. Subsequently, the solvents were slowly evaporated, after at 80° C. under reduced pressure (375 hPa) using a glass vials and a evaporator (P12-Multivapor, Buchi). After evaporation of both the ethanol and the water, a transparent film was formed on the wall of the glass vial.
In parallel 100 mg pure Re was solved in 10 mL of ethanol. […] The ethanol was slowly removed at 80° C. under low pressure (375 hPa) using a glass vials and a evaporator (P12-Multivapor). Again a clear film was formed on the wall of the glass tubes.
Micelle formation of ginsenoside extract obtained from dried leaves as described above was repeated in the presence of 0.6 mg of dexamethasone. Dexamethasone was first dissolved in ethanol in a concentration of 10 mg/mL and 0.6 mg of dexamethasone was added to the ethanolic ginsenoside fraction obtained after purification and decolorization by D101 and D941 resins respectively, using the method described herein above. The content of Re and Rg1 in this ethanolic ginsenoside fraction was 4 mg/10 mL as determined by HPLC (see below). The molecular ratio between dexamethasone and Re/Rel in this solution was around 5:70. The ethanol fraction was slowly removed at 80° C. under reduced pressure (375 hPa) using a glass vials and a evaporator to obtain a film. […] The content and the presence of micelles were assessed by size exclusion chromatography as described below.

[8] = tested on: zebrafish larvae; assay: whole-body glucose measurement of zebrafish larvae; settings: Example 3, ginsenoside Re
[9] = tested on: zebrafish larvae; assay: whole-body cortisol measurement of zebrafish larvae (ELISA); settings: Example 3, ginsenoside Re

SMILES | neutrophil migration to the wounded site ([1]; 10 μM dexamethasone) | relative EGFP intensity (Gr transactivation) [2] | detection of free dexamethasone in fractions after 55 mL [3] | co-elution of dexamethasone with micelles / encapsulation ([3]; Sephadex G50 fractions) | dose equivalent to a 5 mg prednisone dose [4] | regeneration of amputated tail fin (length of regenerated tissue at 5 dpf) ([5]; 0-5 dpf, 10 μM beclomethasone or dexamethasone, 50 μM Rg1 or combinations, amputation at 2 dpf) | migration of neutrophils to the wounded tail area ([1]; Example 3, ginsenoside Re) | migration of macrophages [6] | appearance of solution in ethanol ([7]; 100 mg in 10 mL of ethanol) | appearance of solution in H2O after dissolving the film ([7]; film from ethanol (or 60% EtOH) evaporation, dissolved in H2O) | micelle formation / crystallization in H2O ([7]; microscopic determination, 10 mL H2O) | regenerative tissue ([5]; Example 3, ginsenoside Re) | whole body glucose [8] | whole body cortisol [9]
C[C@@H]1C[C@H]2[C@@H]3CCC4=CC(=O)C=C[C@]4(C)[C@@]3(F)[C@@H](O)C[C@]2(C)[C@@]1(O)C(=O)CO [dexamethasone, reference compound] | did not affect neutrophil migration | significantly increased the relative EGFP intensity | could not be detected in these fractions | co-eluted with the Re and Rg1 containing micelles | about 0.75 mg | dexamethasone-induced inhibition of the regenerative process | – | – | – | – | – | – | – | –
CC(C)=CCC[C@](C)(O[C@@H]1O[C@H](CO)[C@@H](O)[C@H](O)[C@H]1O)[C@H]1CC[C@]2(C)[C@@H]1[C@H](O)C[C@@H]1[C@@]3(C)CC[C@H](O)C(C)(C)[C@@H]3[C@@H](O[C@@H]3O[C@H](CO)[C@@H](O)[C@H](O)[C@H]3O[C@@H]3O[C@@H](C)[C@H](O)[C@@H](O)[C@H]3O)C[C@]12C [Re, (3β, 6α, 12β)-20-(β-D-Glucopyranosyloxy)-3, 12-dihydroxydammar-24-en-6-yl 2-O-(6-deoxy-α-L-mannopyranosyl)-β-D-glucopyranoside] | – | – | – | – | – | – | inhibited the migration of neutrophils to the wounded tail area | did not inhibit the migration of macrophages | clear solution | cloudy solution | crystallization of Re (FIG. 12B) and no micelles were obtained | did not affect regenerative tissue | no side effects could be observed | no side effects could be observed
